Where two headings read alike, the source gives them in different places.

This passage reports inhibition and IC50 results from patent US10940139B2, “Compounds that interact with the Ras superfamily for the treatment of cancers, inflammatory diseases, rasopathies, and fibrotic disease” (Shy Therapeutics LLC, priority 2017, dated 2021).

What all share (experiment): Ras GTP binding domain inhibition assay (labeled GTP)
The target of assay [1] is KRas Q61H mutant (Homo sapiens (Human), UniProt P01116, Q61H). Particulars: 20 μM compound. In short, it runs like this:
(§1)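 Inhibition of labeled GTP binding is measured on immobilized His-KRas protein in Tris buffer pH 7.5 with 1 mM MgCl2 and 1 mM DTT.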

For assay [2], the target named is KRas G12C/Q61H double mutant (Homo sapiens (Human), UniProt P01116, G12C/Q61H). Particulars: 20 μM compound. The method in brief:
as §1

In assay [3] the target is KRas G12D/Q61H double mutant (Homo sapiens (Human), UniProt P01116, G12D/Q61H). The conditions noted are these: for inhibition at 20 µM: 20 μM compound. In short, it runs like this: as §1
Setting [4] is: read-out: % Inhibition at 20 μM KRas Q61H.
Where [5] appears, read: read-out: % Inhibition at 20 μM KRas G12C Q61H.
[6] abbreviates: read-out: % Inhibition at 20 μM KRas G12D Q61H.
Setting [7] is: KRas Q61H, read-out: % Inhibition at 20 μM of K-Ras mutant and wild-type protein, KRas Q61H.
Setting [8] is: KRas G12C/Q61H double mutant, read-out: % Inhibition at 20 μM of K-Ras mutant and wild-type protein, KRas G12C Q61H.
Setting [9] is: KRas G12D/Q61H double mutant, read-out: % Inhibition at 20 μM of K-Ras mutant and wild-type protein, KRas G12D Q61H.

KRas G12D/Q61H double mutant, sequence (P01116-2 other isoform, or with tags, fused parts or gaps G12D/Q61H): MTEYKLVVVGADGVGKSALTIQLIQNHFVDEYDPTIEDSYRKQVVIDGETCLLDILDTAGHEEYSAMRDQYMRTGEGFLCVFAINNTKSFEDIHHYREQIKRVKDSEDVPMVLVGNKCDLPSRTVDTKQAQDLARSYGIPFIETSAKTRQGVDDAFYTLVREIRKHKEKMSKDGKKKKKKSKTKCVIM
KRas Q61H mutant, sequence (P01116-2 other isoform, or with tags, fused parts or gaps Q61H): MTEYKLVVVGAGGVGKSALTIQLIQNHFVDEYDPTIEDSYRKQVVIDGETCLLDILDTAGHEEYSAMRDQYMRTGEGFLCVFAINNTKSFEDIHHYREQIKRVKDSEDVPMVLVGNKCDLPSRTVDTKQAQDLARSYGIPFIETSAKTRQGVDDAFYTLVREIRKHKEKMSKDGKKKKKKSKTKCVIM
KRas G12C/Q61H double mutant, sequence (P01116-2 other isoform, or with tags, fused parts or gaps G12C/Q61H): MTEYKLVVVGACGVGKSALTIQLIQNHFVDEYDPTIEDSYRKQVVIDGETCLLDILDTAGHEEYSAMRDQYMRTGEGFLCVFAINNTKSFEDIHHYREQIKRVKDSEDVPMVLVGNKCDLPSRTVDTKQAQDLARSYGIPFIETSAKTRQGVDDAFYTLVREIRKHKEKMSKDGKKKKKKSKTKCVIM

As for `O=C(c1csc2c(O)nc(-c3ccccn3)nc12)N1CCN(Cc2ccc(O)c(Cl)c2)CC1` [drawing 2765], the inhibition at 20 µM in assay [1] (setting [4]) is 76 to 100%; in assay [2] (setting [5]), 76 to 100%; in assay [3] (setting [6]), 25 to 50%.

Consider `COC(=O)c1cc2nc(-c3ccccn3)nc(O)c2s1` [drawing 2907], for which the inhibition at 20 µM in assay [1] (setting [4]), in assay [2] (setting [5]) and in assay [3] (setting [6]) was 51 to 75% throughout. Also, the IC50 in assay [3] (serial dilution, read-out: KRas G12D Q61H (classes E-H, IC50)) is over 30 µM.

With `Cc1sc2c(O)nc(-c3ccccn3)nc2c1Br` [drawing 3522], the inhibition at 20 µM in assay [1] (setting [7]) was in the range of 1 to 25%; in assay [2] (setting [8]) it was 25 to 50%; in assay [3] (setting [9]), 25 to 50%.

`Cc1ccc(OC2CCCC2)c(-c2csc3c(O)nc(-c4ccccn4)nc23)c1` [drawing 2844]: the inhibition at 20 µM in assay [1] (setting [4]), in assay [2] (setting [5]) and in assay [3] (setting [6]) was 51 to 75% each time.

For the molecule `OCC1(c2ccc(-c3nc(-c4ccccn4)nc(-c4ccc(C5(CO)CC5)cc4)c3Oc3ccccc3)cc2)CC1` [drawing 3532], the inhibition at 20 µM in assay [1] (setting [7]), in assay [2] (setting [8]) and in assay [3] (setting [9]) was 1 to 25% each time.

As to `O=C(c1csc2c(O)nc(-c3ccccn3)nc12)N1CCNC(c2ccc(F)cc2)C1` (stereo not shown) [drawing 2807], the inhibition at 20 µM in assay [1] (setting [4]) was 76 to 100%; in assay [2] (setting [5]), 76 to 100%; in assay [3] (setting [6]) it was 1 to 25%.

For the molecule `COc1ccc2c(c1)CCC2C(=O)Nc1ccnc(-c2ccccn2)n1` (stereo not shown) [drawing 2795], the results for the inhibition at 20 µM in assay [1] (setting [4]), in assay [2] (setting [5]) and in assay [3] (setting [6]) were 25 to 50%, 1 to 25% and 1 to 25%, respectively.

`Oc1nc(-c2ccccn2)nc2c(-c3cncnc3)csc12` [drawing 3504]: the inhibition at 20 µM is 25 to 50% in assay [1] (setting [7]), 1 to 25% in assay [2] (setting [8]) and 1 to 25% in assay [3] (setting [9]).

Regarding `COc1ccnc(-c2nc(O)c3c(C#N)csc3n2)c1` [drawing 2782], the inhibition at 20 µM is 51 to 75% in assay [1] (setting [4]), 25 to 50% in assay [2] (setting [5]) and 0% in assay [3] (setting [6]).

`COCCCCNC(=O)c1csc2nc(-c3ccccn3)nc(N(CCOC)CCOC)c12` [drawing 2793]: the values for the inhibition at 20 µM in assay [1] (setting [4]), in assay [2] (setting [5]) and in assay [3] (setting [6]) were 51 to 75%, 25 to 50% and 0%, respectively.

As for `COc1cnc(C(C)(C)N)nc1O` [drawing 3491], the figures for the inhibition at 20 µM in assay [1] (setting [7]), in assay [2] (setting [8]) and in assay [3] (setting [9]) were 0%, 1 to 25% and 1 to 25%, respectively.

`COc1cc(C)c(-c2csc3c(O)nc(-c4ccccn4)nc23)cc1C` [drawing 2869]: the inhibition at 20 µM in assay [1] (setting [4]) lay in the range of 1 to 25%; in assay [2] (setting [5]), 1 to 25%; in assay [3] (setting [6]), 25 to 50%.

In the case of `O=C(c1csc2c(O)nc(-c3ccccn3)nc12)N1CCOC(Cc2ccccc2)C1` (stereo not shown) [drawing 2771], the inhibition at 20 µM in assay [1] (setting [4]) was in the range of 51 to 75%; in assay [2] (setting [5]), 51 to 75%; in assay [3] (setting [6]), 25 to 50%.

Take `COC(=O)c1nc(-c2ccccn2)nc(O)c1O` [drawing 3547]: the figures for the inhibition at 20 µM in assay [1] (setting [7]), in assay [2] (setting [8]) and in assay [3] (setting [9]) were 51 to 75%, 76 to 100% and 51 to 75%, respectively.

On to `Cn1cc(C2CN(C(=O)c3csc4c(O)nc(-c5ccccn5)nc34)CCN2)cn1` (stereo not shown) [drawing 2777], for which the inhibition at 20 µM in assay [1] (setting [4]) lay in the range of 51 to 75%; in assay [2] (setting [5]) it was 51 to 75%; in assay [3] (setting [6]) it was 1 to 25%.

As for `O=C(c1csc2c(O)nc(-c3ccccn3)nc12)N1CCOC(CN2CCOCC2)C1` (stereo not shown) [drawing 2805], the inhibition at 20 µM is 51 to 75% in assay [1] (setting [4]), 25 to 50% in assay [2] (setting [5]) and 1 to 25% in assay [3] (setting [6]).

`COc1cc(N2CCN(C(=O)c3csc4c(O)nc(-c5ccccn5)nc34)CC2)cc(OC)c1OC` [drawing 2758]: the inhibition at 20 µM in assay [1] (setting [4]) was 25 to 50%; in assay [2] (setting [5]), 1 to 25%; in assay [3] (setting [6]), 0%.

Turning to `COc1ccc(CCN(C)C(=O)c2csc3nc(-c4ccccn4)nc(N4CCOCC4)c23)cn1` [drawing 2746], the inhibition at 20 µM in assay [1] (setting [4]) was 25 to 50%; in assay [2] (setting [5]) it was 25 to 50%; in assay [3] (setting [6]) it was 0%.
